According to patent publication US20250243267A1, “COMBINATION OF A GREMLIN-1 ANTAGONIST WITH A CYTIDINE ANALOGUE OR DEOXYCYTIDINE ANALOGUE” (UCB BIOPHARMA SRL, priority 2022, published 2025):
Several values for one entry are separate records, joined by “and”; a condition that tells them apart may be missing. Equal values may be shown once.

System: LSL-KrasG12D/+; LSL-Trp53R172H/+; Pdx1-Cre (KPC) mouse model of pancreatic cancer
Assay: Survival of KPC mice with pancreatic cancer from start of treatment (Kaplan-Meier, Log-Rank)
Format: in vivo
Text: • Test antibody and drug Anti-gremlin-1 antibody-Ab7326 mlgG1-APP.4405.IgG.mFc-Lot number-PB 4682 • Vehicle-Phosphate Buffered Saline pH 7.4 (provided by the Beatson Institute) • Gemcitabine-(provided by the Beatson Institute, purchased from LC Labs, Woburn, MA, USA) in Phosphate Buffered Saline pH 7.4. • Genetically Modified Mice • LSL-Kras^G12D/+; Trp53^R172H/+; Pdx1-Cre (KPC) mice have been described previously (Hingorani et al., 2005). Mice were generated by crossing mice bearing Pdx1-Cre, and conditional LSL-KrasG12D or LSL-Trp53R172H alleles (strains 01XJ6 and 01XL9, Mouse Models of Human Cancer Consortium [MMHCC], NCI-Frederick, Frederick, MD, USA). Mice on a mixed background were bred in-house at the CRUK Beatson Institute and maintained in conventional caging with environmental enrichment, access to standard chow and water ad libitum. Genotyping was performed by Transnetyx (Cordoba, TN, USA). Mice of both sexes were recruited onto study. All animal experiments were performed under a UK Home Office licence and approved by the University of Glasgow Animal Welfare and Ethical Review Board.
Mice were monitored 3 times weekly until a diagnosis of pancreatic cancer was made by abdominal palpation and confirmed by ultrasound imaging. […] Mice were monitored daily and sacrificed when reaching ethical endpoint (symptoms include abdominal distension, cachexia, intermittent hunching or reduced mobility, piloerection, mild diarrhoea, anaemia). […]
Next, the efficacy of gremlin-1 inhibition as a potential therapeutic approach for pancreatic cancer was tested in the KPC model. […] A cohort of KPC mice was established and mice were monitored until they developed pancreatic cancer detectable by palpation.
Mice were monitored at least weekly by palpation until pancreatic tumours were detectable. […] Mice remained on study and were closely monitored until ethical endpoint was reached, at which time they were sacrificed as per institutional guidelines.

Nc1ccn([C@@H]2O[C@H](CO)[C@@H](O)C2(F)F)c(=O)n1 [Gemcitabine, 2′-deoxy-2′,2′-difluorocytidine, reference compound]
survival compared with vehicle controls (KPC mice, result in words): negligible benefit | Median (days) survival (KPC mice, survival from start of treatment, dosing twice weekly (Ab7326 mlgG1 30 mg/kg s.c.; gemcitabine 100 mg/kg i.p.)): 24 days | Days on Rx (individual mice) (one value per KPC mouse, * denotes smaller than average tumour at start of treatment): 3 days and 34 days and 24 days and 44 days and 17 days
